Reference: US6420357B1, “Cytotoxic alkaloid derivatives including Asmarine A and B isolated from a sponge” (Instituto Biomar, S.A., priority 1997, dated 2002)
pIC50: −log10 of the molar value.

Legend:
Type in all cases: cell-based
[1] = system: HT-29 (monolayer culture of a human colon carcinoma); experiment: in vitro cytotoxic assay, HT-29 cells; settings: 72 h, three days of incubation, Crystal Violet staining, approximate IC50
Experimental: (§1) Cells were maintained in logarithmic phase of growth in Eagle's Minimum Essential Medium, with Earle's Balanced Salts, with 2.0 mM L-glutamine, with non-essential amino acids, without sodium bicarbonate (EMEM/neaa); supplemented with 10% Fetal Calf Serum (FCS), 10^−2 M sodium bicarbonate and 0,1 g/l penicillin-G+streptomycin sulfate.
(§2) A screening procedure has been carried out to determine and compare the antitumor activity of these compounds, using an adapted form of the method described by Bergeron et al. (Reference 3). The antitumor cells employed were P-388 (suspension culture of a lymphoid neoplasm from DBA/2 mouse), A-549 (monolayer culture of a human lung carcinoma), HT-29 (monolayer culture of a human colon carcinoma) and MEL-28 (monolayer culture of a human melanoma).
(§3) A-549, HT-29 and MEL-28 cells were seeded into 16 mm wells at 2×10^4 cells per well in 1 ml aliquots of MEM 10FCS containing the indicated concentration of drug. A separate set of cultures without drug was seeded as control growth to ensure that cells remained in exponential phase of growth. All determinations were carried out in duplicate. After three days of incubation at 37° C., 10% CO2 in a 98% humid atmosphere, the wells were stained with 0.1% Crystal Violet. An approximately IC50 was determined by comparing the growth in wells with drug to the growth in wells control.

[2] = system: MEL-28 (monolayer culture of a human melanoma); experiment: in vitro cytotoxic assay, MEL-28 cells; settings: SK-MEL-28, 72 h, three days of incubation, Crystal Violet staining, approximate IC50
Experimental: as §1, §2, §3

[3] = system: A-549 (monolayer culture of a human lung carcinoma); experiment: in vitro cytotoxic assay, A-549 cells; settings: A549, 72 h, three days of incubation, Crystal Violet staining, approximate IC50
Experimental: as §1, §2, §3

[4] = system: P-388 (suspension culture of a lymphoid neoplasm from DBA/2 mouse); experiment: in vitro cytotoxic assay, P-388 cells; settings: P388, 72 h, three days of incubation, approximate IC50 by growth vs control wells
Experimental: as §1, §2
as §3, with “P-388” for “A-549, HT-29 and MEL-28”, “1×10^4” for “2×10^4”, “5FCS” for “10FCS”, “an” for “the wells were stained with 0.1% Crystal Violet. An”

C=C1CCC[C@@H]2[C@@](C)(CC[C@@]3(C)CCn4cnc5ncnc(c54)N3O)[C@H](C)CC[C@@]12C [Asmarine A]
pIC50 [1]: 5.93 | pIC50 [2]: 5.93 | pIC50 [3]: 5.93 | pIC50 [4]: 5.93

C=C1CCC[C@H]2[C@@](C)(CC[C@@]3(C)CCn4cnc5ncnc(c54)N3O)[C@H](C)CC[C@@]12C [Asmarine B]
pIC50 [1]: 6.92 | pIC50 [2]: 6.62 | pIC50 [3]: 6.92 | pIC50 [4]: 6.62
